From patent US12558345B2, “CHK1/2 inhibitors for use in the treatment of neuroblastomas and/or soft tissue sarcomas” (Eli Lilly and Company, priority 2015, dated 2026)
Where a name gives a salt, the structure may show the parent alone.

What was measured:
[1] = test system: Calu-6 lung tumor xenograft; test: Human Tumor Xenograft Models, with gemcitabine: Calu-6; type: in vivo, mouse
Experimental: The ability of CHK1 inhibitors to effect tumor killing can be determined in vivo using the Calu-6 lung and HT-29 colon tumor xenograft efficacy models. Calu-6 lung cancer cells (ATCC) are cultured in growth media (MEM w/ Earle's salts (Invitrogen) with L-glutamine (Gibco™) supplemented with 10% (v/v) heat inactivated FBS (Gibco™), 1×MEM non-essential amino acids (Gibco™), 1×sodium pyruvate (Gibco™)) and HT-29 colon cancer cells (ATCC) are cultured in growth media, (McCoy's 5A medium (Gibco™) supplemented with 10% FBS (Gibco™)) and expanded. Cells are harvested and washed twice with phosphate buffered saline and 5×10^6 cells (HT-29) or 1×10^6 cells (Calu-6) in growth media (without serum) are mixed with equal volume of BD Matrigel™ matrix (BD Bioscience, Franklin, NJ), then injected subcutaneously into the flank of nude mice (CD-1 nu/nu, from Charles River Labs, Wilmington, MA). At about day 16 after implant (150-200 mm^3), gemcitabine is formulated fresh in saline daily and administered to animals by intraperitoneal route at 60 mg/kg dose. […] Tumor response is determined by tumor volume measurement performed twice a week during the course of treatment. Tumor growth inhibition (TGI) is calculated as the percent reduction in mean tumor size of a compound treated group from the mean tumor size of the vehicle-treated control group.

[2] = test system: CTG-0243 OS patient-derived xenograft; test: Xenograft Tumor Model CTG-0243; type: in vivo, mouse; conditions: comparator day 22, p-value 0.089
Experimental: (§1) The efficacy of 5-(5-(2-(3-aminopropoxy)-6-methoxyphenyl)-1H-pyrazol-3-ylamino)pyrazine-2-carbonitrile methanesulfonic acid monohydrate is measurable in vivo in mouse models of neuroblastomas and human pediatric and adult sarcomas. 5-(5-(2-(3-Aminopropoxy)-6-methoxyphenyl)-1H-pyrazol-3-ylamino)pyrazine-2-carbonitrile methanesulfonic acid monohydrate (10 mg/kg) can be administered subcutaneously to nude mice bearing either cell-derived xenografts (CDX) or patient-derived xenografts (PDX) of human rhabdomyosarcoma, desmoplastic small round cell tumor (DSRCT), osteosarcoma, and Ewing's sarcoma using a 3 day on, 4 day off b.i.d. dosing schedule. Tumor volume and body weight can be measured two times per week. Tumor-specific parameters can be evaluated by immumohistochemistry. […]
(§2) For all “ST” models (encompassing RMS and LMS), patient-derived xenografts are established from viable human tumor tissue and are serially passaged in animals a limited number of times to maintain tumor heterogeneity. […] Tumor response is determined by tumor volume measurement performed twice per week during the course of treatment.

[3] = test system: CTG-0816 EWS patient-derived xenograft; test: Xenograft Tumor Model CTG-0816; type: in vivo, mouse; conditions: comparator day 28, p-value 0.069
Experimental: as §1, §2

[4] = test system: CTG-0994 EWS patient-derived xenograft; test: Xenograft Tumor Model CTG-0994; type: in vivo, mouse; conditions: comparator day 25, p-value <0.001
Experimental: as §1, §2

[5] = test system: CTG-1116 RMS patient-derived xenograft; test: Xenograft Tumor Model CTG-1116; type: in vivo, mouse; conditions: comparator day 17, p-value <0.001
Experimental: as §1, §2

[6] = test system: KELLY human NBM cancer cell xenograft; test: Xenograft Tumor Model KELLY; type: in vivo, mouse; conditions: comparator day 49, p-value <0.001
Experimental: The following protocol can be used to measure reductions in tumor volume in response to an active pharmaceutical ingredient. Expand human NBM cancer cells SH-SY5Y (ATCC, #CRL-2226) in culture, harvest, and inject 5×10^6 cells in 200 μL of 1:1 solution of HBSS and Matrigel® subcutaneously into the right rear flank of female CD-1 nu/nu mice (20-24 g, Charles River Laboratories). Expand human NBM cancer cells KELLY (Sigma-#92110411) in culture, harvest, and inject 5×10^6 cells in 200 μL of 1:1 solution of HBSS and Matrigel® subcutaneously into the right rear flank of female CB-17 SCID mice (20-24 g, Charles River Laboratories). Expand human NBM cancer cells IMR-32 (ATCC, #CCL-127) in culture, harvest, and inject 5×10^6 cells in 200 μL of 1:1 solution of HBSS and Matrigel® subcutaneously into the right rear flank of female CB-17 SCID mice (20-24 g, Charles River Laboratories).
as §2

[7] = test system: SJCRH-30 human RMS cancer cell xenograft; test: Xenograft Tumor Model SJCRH-30; type: in vivo, mouse
Experimental: (§3) The efficacy of 5-(5-(2-(3-aminopropoxy)-6-methoxyphenyl)-1H-pyrazol-3-ylamino)pyrazine-2-carbonitrile methanesulfonic acid monohydrate is measurable in vivo in mouse models of neuroblastomas and human pediatric and adult sarcomas. 5-(5-(2-(3-Aminopropoxy)-6-methoxyphenyl)-1H-pyrazol-3-ylamino)pyrazine-2-carbonitrile methanesulfonic acid monohydrate (10 mg/kg) can be administered subcutaneously to nude mice bearing either cell-derived xenografts (CDX) or patient-derived xenografts (PDX) of human rhabdomyosarcoma, desmoplastic small round cell tumor (DSRCT), osteosarcoma, and Ewing's sarcoma using a 3 day on, 4 day off b.i.d. dosing schedule. Tumor volume and body weight can be measured two times per week. Tumor-specific parameters can be evaluated by immumohistochemistry.
Expand human RMS cancer cells SJCRH-30 (St. Jude Children's Research Hospital) in culture, harvest, and inject 5×10^6 cells in 200 μL of HBSS subcutaneously into the right rear flank of female athymic nude mice (20-22 g, Harlan Laboratories). Expand human rhabdomyosarcoma cancer cells RD (ATCC, #CCL-136) in culture, harvest, and inject, 5×10^6 cells in 200 μL of HBSS subcutaneously into the right rear flank of female athymic nude mice (20-22 g, Harlan Laboratories).
(§4) For all “ST” models (encompassing RMS and LMS), patient-derived xenografts are established from viable human tumor tissue and are serially passaged in animals a limited number of times to maintain tumor heterogeneity. In subcutaneous models, athymic nude mice (Crl:NU(NCr)-Foxn1nu) or CB-17 SCID mice (CRL-CB17/Icr-Prkdcscid/IcrIcoCrl) are injected or implanted unilaterally into the flank with tumor fragments harvested from host animals, each implanted from a specific passage lot. For all studies, measure tumor growth and body weight twice per week beginning on the seventh day after implantation. When tumor size reaches 150-300 mm^3, randomize animals and group into groups of 4-7 animals. Prepare test compound in an appropriate vehicle (e.g. vehicle can be 20% Captisol® in sterile water) and administer subcutaneously for three consecutive days followed by a four day dosing holiday and repeat for a minimum of four weeks. Tumor response is determined by tumor volume measurement performed twice per week during the course of treatment.

[8] = test system: ST1547 LMS patient-derived xenograft; test: Xenograft Tumor Model ST1547; type: in vivo, mouse; conditions: comparator day 28, p-value <0.001
Experimental: as §4

[9] = test system: ST658 LMS patient-derived xenograft; test: Xenograft Tumor Model ST658; type: in vivo, mouse; conditions: comparator day 16, p-value 0.592
Experimental: as §4

[10] = test system: Osteosarcoma xenograft models; test: Sarcoma xenograft models by tumor subtype: Osteosarcoma; type: in vivo, mouse; conditions: age of patients 11-19 years
Experimental: as §1, §2

[11] = test system: Embryonal Rhabdomyosarcoma xenograft models; test: Sarcoma xenograft models by tumor subtype: Embryonal Rhabdomyosarcoma; type: in vivo, mouse; conditions: age of patients 2-7 years
Experimental: as §3
Expand human RMS cancer cells SJCRH-30 (St. Jude Children's Research Hospital) in culture, harvest, and inject 5×10^6 cells in 200 μL of HBSS subcutaneously into the right rear flank of female athymic nude mice (20-22 g, Harlan Laboratories). […]
as §2

[12] = test system: pediatric sarcoma in vivo mouse models; test: Pediatric tumor / pediatric sarcoma in vivo mouse models (panel)
Experimental: as §3
For all “CTG” models (encompassing human RMS, DSRCT, EWS, OS and LMS patient-derived xenograft models), female NCr nude spontaneous mutant mice (5-8 weeks old, Taconic) are implanted unilaterally in the flank region with tumor fragments harvested from donor animals, each implanted from a specific passage lot.
For all “ST” models (encompassing RMS and LMS), patient-derived xenografts are established from viable human tumor tissue and are serially passaged in animals a limited number of times to maintain tumor heterogeneity. In subcutaneous models, athymic nude mice (Crl:NU(NCr)-Foxn1nu) or CB-17 SCID mice (CRL-CB17/Icr-Prkdcscid/IcrIcoCrl) are injected or implanted unilaterally into the flank with tumor fragments harvested from host animals, each implanted from a specific passage lot. For all studies, measure tumor growth and body weight twice per week beginning on the seventh day after implantation. When tumor size reaches 150-300 mm^3, randomize animals and group into groups of 4-7 animals. […] Tumor response is determined by tumor volume measurement performed twice per week during the course of treatment.

[13] = results ranging from stable disease to complete response

Structure (SMILES) | increase in tumor growth inhibition over gemcitabine alone ([1]; Calu-6, combination with gemcitabine) | anti-tumor activity ([1]; Calu-6, dosed alone and in combination with gemcitabine 60 mg/kg ip, compound iv +24 hours, Q3Dx4) | % T/C [2] [%] | % T/C [3] [%] | % Regression [4] [%] | % T/C [5] [%] | % Regression [6] [%] | % Regression ([7]; SJCRH-30, RMS, comparator day 38, p-value <0.001) [%] | course of the regression upon withdrawal of the drug ([7]; SJCRH-30 aRMS model) | tumor response during treatment ([7]; SJCRH-30 aRMS model) | response of subsequent regrowth to further treatment ([7]; SJCRH-30 aRMS model, 10 mg/kg) | % T/C [8] [%] | % T/C [9] [%] | Result of Treatment: Stable Disease (models) [10] | Result of Treatment: Complete Response (models) [11] | Result of Treatment: Stable Disease (models) [11] | pediatric tumor models with strong single agent activity ([12]; ranging from stable disease to complete regression, 10 mg/kg SC, 3 day on, 4 day off b.i.d.) | pediatric sarcoma in vivo mouse models in which effective as a single agent (models) [12, 13] | pediatric sarcoma in vivo mouse models in which effective as a single agent (percent) [12, 13] [%]
COc1cccc(OCCCN)c1-c1cc(Nc2cnc(C#N)cn2)n[nH]1 [Example 2, 5-(5-(2-(3-Aminopropoxy)-6-methoxyphenyl)-1H-pyrazol-3-ylamino)pyrazine-2-carbonitrile dihydrogen chloride salt] | up to a six-fold increase | excellent dose dependent anti-tumor activity | – | – | – | – | – | – | – | – | – | – | – | – | – | – | – | – | –
COc1cccc(OCCCN)c1-c1cc(Nc2cnc(C#N)cn2)n[nH]1 [Example 5, 5-(5-(2-(3-Aminopropoxy)-6-methoxyphenyl)-1H-pyrazol-3-ylamino)pyrazine-2-carbonitrile methanesulfonic acid monohydrate] | – | – | 43 | 44 | −79 | 8 | −88 | −78 | immediately reversed | complete regression | resistant to further treatment | 5 | 137 | 1/4 Stable Disease | 1/3 Complete | Response; 1/3 | 7/13 | 7/17 | ~41
